Counter-ions that a name gives are not always drawn. Like-named read-outs stand apart in the source and are kept apart here.
Molecular target: SARS-CoV-2 3CLpro (Severe acute respiratory syndrome coronavirus 2, UniProt P0DTD1)
Experiment: biochemical
Format: biochemical
Design: Replicate_1 / Replicate_2 / mean / mean (LOPAC_screen_w_protease): unit not given here
Conditions: for mean (LOPAC screen with protease) / Replicate_1 (LOPAC screen with protease) / Replicate_2 (LOPAC screen with protease): primary screen at 5 µM
[1] = LOPAC1280 primary screen with protease, 5 µM compound, mean of the two replicates
[2] = LOPAC1280 primary screen with protease, 5 µM compound, replicate 1
[3] = LOPAC1280 primary screen with protease, 5 µM compound, replicate 2
[4] = 4 h, sheet LOPAC_screen_w_protease, primary screen with protease, mean of two replicates, read-out: mean
[5] = 4 h, sheet LOPAC_screen_w_protease, primary screen with protease, replicate 1, read-out: Replicate_1
[6] = 4 h, sheet LOPAC_screen_w_protease, primary screen with protease, replicate 2, read-out: Replicate_2
[7] = sheet LOPAC_screen_w_protease, mean of two replicates
[8] = sheet LOPAC_screen_w_protease, replicate 1
[9] = sheet LOPAC_screen_w_protease, replicate 2
[10] = sheet LOPAC_screen_w_protease, LOPAC1280 primary screen at 5 µM, with protease, mean of the two replicates
[11] = sheet LOPAC_screen_w_protease, LOPAC1280 primary screen at 5 µM, with protease, replicate 1
[12] = sheet LOPAC_screen_w_protease, LOPAC1280 primary screen at 5 µM, with protease, replicate 2
[13] = sheet LOPAC_screen_w_protease, LOPAC1280 at 5 µM, mean of two replicates
[14] = sheet LOPAC_screen_w_protease, LOPAC1280 at 5 µM, replicate 1
[15] = sheet LOPAC_screen_w_protease, LOPAC1280 at 5 µM, replicate 2
[16] = sheet LOPAC_screen_w_protease, LOPAC1280 primary screen with protease, 5 µM compound, mean of the two replicates
[17] = sheet LOPAC_screen_w_protease, LOPAC1280 primary screen with protease, 5 µM compound, replicate 1
[18] = sheet LOPAC_screen_w_protease, LOPAC1280 primary screen with protease, 5 µM compound, replicate 2
[19] = 4 h, sheet LOPAC_screen_w_protease, LOPAC1280 primary screen at 5 µM, with protease, mean of the two replicates, read-out: mean
[20] = 4 h, sheet LOPAC_screen_w_protease, LOPAC1280 primary screen at 5 µM, with protease, replicate 1, read-out: Replicate_1
[21] = 4 h, sheet LOPAC_screen_w_protease, LOPAC1280 primary screen at 5 µM, with protease, replicate 2, read-out: Replicate_2
[22] = sheet LOPAC_screen_w_protease, primary screen with protease, 5 µM, mean of two replicates
[23] = sheet LOPAC_screen_w_protease, primary screen with protease, 5 µM, replicate 1
[24] = sheet LOPAC_screen_w_protease, primary screen with protease, 5 µM, replicate 2

## O=C1C=CC(=O)C=C1 [p-Benzoquinone]
[1]
  mean (LOPAC_screen_w_protease): 2.118
[2]
  Replicate_1 (LOPAC_screen_w_protease): 1.8862
[3]
  Replicate_2 (LOPAC_screen_w_protease): 2.35

## O=C[C@H](Cl)[C@@H](O)[C@H](O)[C@H](O)CO [2-Chloro-2-deoxy-D-glucose]
[1]
  mean (LOPAC_screen_w_protease): 1.752
[2]
  Replicate_1 (LOPAC_screen_w_protease): 1.144
[3]
  Replicate_2 (LOPAC_screen_w_protease): 2.361

## CN(C)CCC=C1c2ccccc2C=Cc2ccccc21 [Cyclobenzaprine hydrochloride]
  mean (LOPAC_screen_w_protease): 2.047
4 h, read-out: Replicate_1 (LOPAC_screen_w_protease)
  inhibition at 5 µM: 3.03%
4 h, read-out: Replicate_2 (LOPAC_screen_w_protease)
  inhibition at 5 µM: 1.06%

## Oc1ccc(-c2nc(-c3ccncc3)c(-c3ccc(F)cc3)[nH]2)cc1 [SB 202190]
[4]
  inhibition at 5 µM: 2.45%
[5]
  inhibition at 5 µM: 1.31%
[6]
  inhibition at 5 µM: 3.6%

## C[C@@](Cc1ccc(O)c(O)c1)(NN)C(=O)O [S-(-)-Carbidopa]
[7]
  mean (LOPAC screen with protease): 17.4897
[8]
  Replicate_1 (LOPAC screen with protease): 19.273
[9]
  Replicate_2 (LOPAC screen with protease): 15.7065

## c1ccc2c(c1)CCCC2C1=NCCN1 (stereo not shown) [Tetrahydrozoline hydrochloride]
[4]
  inhibition at 5 µM: 2.26%
[5]
  inhibition at 5 µM: 1.87%
[6]
  inhibition at 5 µM: 2.65%

## N.S=C(S)N1CCCC1 [Ammonium pyrrolidinedithiocarbamate]
[7]
  mean (LOPAC screen with protease): 72.0091
[8]
  Replicate_1 (LOPAC screen with protease): 73.369
[9]
  Replicate_2 (LOPAC screen with protease): 70.6492

## NCCCP(=O)(O)O [3-Aminopropylphosphonic acid]
[1]
  mean (LOPAC_screen_w_protease): 1.904
[2]
  Replicate_1 (LOPAC_screen_w_protease): 3.261
[3]
  Replicate_2 (LOPAC_screen_w_protease): 0.5459

## COC(=O)c1c(-c2cc(OC)c(OC)c(OC)c2)c2ccc(OCc3ccccn3)cc2c(=O)n1-c1ccc(N)cc1.O=S(=O)(O)O [T-1032]
[10]
  mean: 0.5404
[11]
  Replicate_1: 1.02
[12]
  Replicate_2: 0.06128

## CS(=O)(=O)Nc1ccc([N+](=O)[O-])cc1Oc1ccccc1 [Nimesulide]
4 h, read-out: Replicate_1
  inhibition at 5 µM: 4.73%
4 h, read-out: Replicate_2
  inhibition at 5 µM: 4.45%
4 h, read-out: mean
  inhibition at 5 µM: 4.59%

## Cl.NOCC(=O)O.NOCC(=O)O
[13]
  mean: 1.195
[14]
  Replicate_1: 1.0596
[15]
  Replicate_2: 1.33

## CC(C)NCC(O)c1cc(O)cc(O)c1.CC(C)NCC(O)c1cc(O)cc(O)c1.O=S(=O)(O)O (stereo not shown) [Metaproterenol hemisulfate]
[16]
  mean: 4.319
[17]
  Replicate_1: 2.0521
[18]
  Replicate_2: 6.586

## OC1(c2ccc(Cl)cc2)CCN(Cc2c[nH]c3ccccc23)CC1 [L-741,626]
[16]
  mean: 4.28
[17]
  Replicate_1: 4.691
[18]
  Replicate_2: 3.869

## N=C(N)NC(=N)Nc1ccccc1 [1-Phenylbiguanide]
[10]
  mean: 0.7649
[11]
  Replicate_1: -0.09991
[12]
  Replicate_2: 1.6298

## Nc1ccc(N2C(=O)c3ccccc3C2=O)c(Cl)c1 [N-(4-Amino-2-chlorophenyl)phthalimide]
Sheet LOPAC_screen_w_protease, primary screen with protease, mean of two replicates
  mean: 2.38
Sheet LOPAC_screen_w_protease, primary screen with protease, replicate 1
  Replicate_1: 2.0208
Sheet LOPAC_screen_w_protease, primary screen with protease, replicate 2
  Replicate_2: 2.74

## CC(C)N(CCC(C(N)=O)(c1ccccc1)c1ccccn1)C(C)C (stereo not shown) [Disopyramide phosphate]
4 h, sheet LOPAC_screen_w_protease, primary screen with protease, compound at 5 µM, mean of two replicates, read-out: mean
  inhibition at 5 µM: 2.74%
4 h, sheet LOPAC_screen_w_protease, primary screen with protease, compound at 5 µM, replicate 1, read-out: Replicate_1
  inhibition at 5 µM: 4.07%
4 h, sheet LOPAC_screen_w_protease, primary screen with protease, compound at 5 µM, replicate 2, read-out: Replicate_2
  inhibition at 5 µM: 1.41%

## COC(=O)c1cc2c(cn1)[nH]c1ccccc12 [Methyl beta-carboline-3-carboxylate]
Sheet LOPAC_screen_w_protease, primary screen of LOPAC1280 at 5 µM with protease, mean of the two replicates
  mean: 3.265
Sheet LOPAC_screen_w_protease, primary screen of LOPAC1280 at 5 µM with protease, replicate 1
  Replicate_1: 4.868
Sheet LOPAC_screen_w_protease, primary screen of LOPAC1280 at 5 µM with protease, replicate 2
  Replicate_2: 1.662

## Nc1c(S(=O)(=O)O)cc(Nc2ccc(Nc3nc(Cl)nc(Nc4cccc(S(=O)(=O)O)c4)n3)c(S(=O)(=O)O)c2)c2c1C(=O)c1ccccc1C2=O [Reactive Blue 2]
[19]
  inhibition at 5 µM: 0.827%
[20]
  inhibition at 5 µM: -0.139%
[21]
  inhibition at 5 µM: 1.79%

## O=C(O)[C@H]1CCCN[C@H]1C(=O)O (racemic) [(±)-cis-Piperidine-2,3-dicarboxylic acid]
LOPAC1280 primary screen with protease, 5 µM compound, mean of two replicates
  mean (LOPAC_screen_w_protease): 1.527
[2]
  Replicate_1 (LOPAC_screen_w_protease): 0.9979
[3]
  Replicate_2 (LOPAC_screen_w_protease): 2.056

## NC(=O)CC[C@H](N)C(=O)O [L-Glutamine]
[19]
  inhibition at 5 µM: 0.871%
[20]
  inhibition at 5 µM: 2.13%
[21]
  inhibition at 5 µM: -0.384%

## COc1ccc2c(c1)c(CC(=O)N1CCOCC1)c(C)n2C(=O)c1ccc(Cl)cc1 [Indomethacin morpholinylamide]
[4]
  inhibition at 5 µM: 2.27%
[5]
  inhibition at 5 µM: 2.02%
[6]
  inhibition at 5 µM: 2.53%

## NC(=O)CN1CC(O)CC1=O (stereo not shown) [Oxiracetam]
4 h, sheet LOPAC_screen_w_protease, primary screen of LOPAC1280 at 5 µM with protease, mean of the two replicates, read-out: mean
  inhibition at 5 µM: 3.68%
4 h, sheet LOPAC_screen_w_protease, primary screen of LOPAC1280 at 5 µM with protease, replicate 1, read-out: Replicate_1
  inhibition at 5 µM: 3.64%
4 h, sheet LOPAC_screen_w_protease, primary screen of LOPAC1280 at 5 µM with protease, replicate 2, read-out: Replicate_2
  inhibition at 5 µM: 3.71%

## Cl.N=C(N)NC(=N)Nc1cccc(Cl)c1
[1]
  mean (LOPAC_screen_w_protease): 1.751
[2]
  Replicate_1 (LOPAC_screen_w_protease): 2.329
[3]
  Replicate_2 (LOPAC_screen_w_protease): 1.173

## O=c1c(O)c(-c2ccc(O)c(O)c2)oc2cc(O)cc(O)c12 [quercetin, reference compound]
read-out: inhibition of 3CLpro in the primary screen
  inhibition at 5 µM: 1.9%

## C[C@]12CC[C@@H](O)C[C@@H]1CC[C@@H]1[C@@H]2CC[C@]2(C)[C@@H](C(=O)CO)CC[C@@H]12
[16]
  mean: 5.219
[17]
  Replicate_1: 2.641
[18]
  Replicate_2: 7.796

## N#CC(=C(/N)Sc1ccccc1N)/C(C#N)=C(/N)Sc1ccccc1N [U0126]
Sheet LOPAC_screen_w_protease, primary screen with protease, compound at 5 µM, mean of two replicates
  mean: 2.655
Sheet LOPAC_screen_w_protease, primary screen with protease, compound at 5 µM, replicate 1
  Replicate_1: 2.394
Sheet LOPAC_screen_w_protease, primary screen with protease, compound at 5 µM, replicate 2
  Replicate_2: 2.916

## N=C(N)NCCC[C@H](N)C(=O)O [L-Arginine]
[19]
  inhibition at 5 µM: 0.787%
[20]
  inhibition at 5 µM: 3.1%
[21]
  inhibition at 5 µM: -1.52%

## CCc1cccc2c3c([nH]c12)C(CC)(CC(=O)O)OCC3 (stereo not shown) [Etodolac]
[19]
  inhibition at 5 µM: 0.659%
[20]
  inhibition at 5 µM: 1.48%
[21]
  inhibition at 5 µM: -0.164%

## COc1ccc(Cc2nccc3cc(OC)c(OC)cc23)cc1OC [Papaverine hydrochloride]
4 h, sheet LOPAC_screen_w_protease, LOPAC1280 primary screen with protease, 5 µM compound, mean of the two replicates, read-out: mean
  inhibition at 5 µM: 5.63%
4 h, sheet LOPAC_screen_w_protease, LOPAC1280 primary screen with protease, 5 µM compound, replicate 1, read-out: Replicate_1
  inhibition at 5 µM: 5.9%
4 h, sheet LOPAC_screen_w_protease, LOPAC1280 primary screen with protease, 5 µM compound, replicate 2, read-out: Replicate_2
  inhibition at 5 µM: 5.37%

## COc1ccccc1N1CCN(CCN(C(=O)C2CCCCC2)c2ccccn2)CC1.O=C(O)/C=C\C(=O)O [WAY-100635 maleate]
[13]
  mean: 1.0596
[14]
  Replicate_1: 1.502
[15]
  Replicate_2: 0.6169

## CCCCCC(O)CCCC(=O)O.[Na] (stereo not shown) [5-hydroxydecanoic acid sodium]
[22]
  mean: 0.3617
[23]
  Replicate_1: 2.03
[24]
  Replicate_2: -1.306

## O=C1NCC2(CCN(CCc3ccccc3)CC2)O1 [Fenspiride hydrochloride]
[4]
  inhibition at 5 µM: 2.48%
[5]
  inhibition at 5 µM: 4.11%
[6]
  inhibition at 5 µM: 0.843%

## CCCCC#Cc1nc(N)c2ncn([C@@H]3O[C@H](C(=O)NCC)[C@@H](O)[C@H]3O)c2n1 [HE-NECA]
[22]
  mean: 0.2072
[23]
  Replicate_1: 3.132
[24]
  Replicate_2: -2.7179

## COc1cc2c(cc1OC)-c1c/c(=N\c3c(C)cc(C)cc3C)n(C)c(=O)n1CC2 [Trequinsin hydrochloride]
4 h, LOPAC1280 primary screen with protease, 5 µM compound, replicate 1, read-out: Replicate_1 (LOPAC_screen_w_protease)
  inhibition at 5 µM: 1.97%
4 h, LOPAC1280 primary screen with protease, 5 µM compound, replicate 2, read-out: Replicate_2 (LOPAC_screen_w_protease)
  inhibition at 5 µM: 2%
[1]
  mean (LOPAC_screen_w_protease): 1.986

## OC[C@H]1O[C@@H](n2cnc3c(NC4CCCC4)ncnc32)[C@H](O)[C@@H]1O [N6-Cyclopentyladenosine]
[4]
  inhibition at 5 µM: 2.13%
[5]
  inhibition at 5 µM: 1.59%
[6]
  inhibition at 5 µM: 2.67%

Reference: publication PMC7587356, “High-Throughput Screening for Inhibitors of the SARS-CoV-2 Protease Using a FRET-Biosensor” (Molecules, 2020)
